From PubChem BioAssay (NCI)
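Assay format: 96-well plates, 48-hour exposure. TGI marks complete inhibition of growth.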

Experiments:
Test in all cases: NCI anticancer screen, dose series, 48 h
ACHN renal = test system: ACHN renal
COLO 205 colon = test system: COLO 205 colon
HCT-15 colon = test system: HCT-15 colon
HOP-92 NSCLC = test system: HOP-92 NSCLC
HT29 colon = test system: HT29 colon
IGROV1 ovarian = test system: IGROV1 ovarian
MOLT-4 leukemia = test system: MOLT-4 leukemia
SF-268 CNS = test system: SF-268 CNS
SK-MEL-5 melanoma = test system: SK-MEL-5 melanoma
SK-OV-3 ovarian = test system: SK-OV-3 ovarian
SR leukemia = test system: SR leukemia
TK-10 renal = test system: TK-10 renal
BT-549 breast = test system: BT-549 breast
HS 578T breast = test system: HS 578T breast
MCF7 breast = test system: MCF7 breast
MDA-MB-435 = test system: MDA-MB-435
OVCAR-4 ovarian = test system: OVCAR-4 ovarian

SMILES	TGI (ACHN renal) [µM]	TGI (COLO 205 colon) [µM]	TGI (HCT-15 colon) [µM]	TGI (HOP-92 NSCLC) [µM]	TGI (HT29 colon) [µM]	TGI (IGROV1 ovarian) [µM]	TGI (MOLT-4 leukemia) [µM]	TGI (SF-268 CNS) [µM]	TGI (SK-MEL-5 melanoma) [µM]	TGI (SK-OV-3 ovarian) [µM]	TGI (SR leukemia) [µM]	TGI (TK-10 renal) [µM]	TGI (BT-549 breast) [µM]	TGI (HS 578T breast) [µM]	TGI (MCF7 breast) [µM]	TGI (MDA-MB-435) [µM]	TGI (OVCAR-4 ovarian) [µM]
N#[O+].O=S(=O)([O-])[O-].[NH2-].[NH2-].[NH2-].[NH2-].[NH2-].[Ru+5]	> 100	> 100	> 100	> 100	> 100	> 100	> 100	> 100	> 100	> 100	> 100	> 100					
Cc1c(Cc2ccccc2)n(COCCCO)c(=O)[nH]c1=O	> 100	> 100	> 100	> 100	> 100	> 100	> 100	> 100	> 100	> 100		> 100	> 100	> 100	> 100	> 100	> 100
S=C1Cc2c([nH]c3ccccc23)-c2ccccc2N1	80.6	> 100		> 100	> 100	> 100	> 100	> 100	> 100	64.4	> 100	52.9		> 100	> 100	> 100	> 100
CCN(CC)Cc1cc(Nc2ccnc3ccc4c(nnn4C)c23)ccc1O	8.38	32.4	13.5		> 100	80.3	> 100	29.9	29.9	31.5	18.6	76	37.1	42.1	16.7		32.6
CC(=O)NCc1nc(C#N)c(N)o1	> 100	> 100	> 100	> 100	> 100	> 100	> 100	> 100		> 100		> 100		> 100	> 100	> 100	> 100
COc1cc(C2c3cc4c(cc3[C@@H](Nc3ccccc3)C3CO[C@@H](OC)[C@H]23)OCO4)cc(OC)c1O (stereo partly specified)	10.6	> 25	> 25		10.7	> 25	6.34	> 25	> 25	> 25	22.6	> 25		17.3	> 25	> 25	> 25
CC1CN=C(Nc2ccc(S(N)(=O)=O)cc2)S1 (stereo unspecified)	> 100	> 100	> 100	> 100	> 100	> 100	> 100	> 100	> 100	> 100	> 100	> 100		> 100	> 100		> 100
O=[N+]([O-])C(C(Cl)=C(Cl)Cl)=C(N1CCOCC1)N1CCOCC1	> 100	> 100	> 100		> 100	> 100	> 100	> 100	> 100	> 100		> 100		> 100		> 100	> 100
O=C1c2ccccc2S[C@@H](O)[C@@H]2CCCN12	> 100	> 100	> 100	> 100		87.9	> 100	> 100	> 100	> 100	> 100	> 100					
CC(=O)OC1CC2OC(Cc3ccccc32)O1 (stereo unspecified)	> 100	> 100		> 100	> 100	> 100	> 100	> 100		> 100	> 100	> 100					
Cc1oc2nc(N(C)C)nc(Cl)c2c1C	> 100	> 100	> 100	> 100	> 100	> 100	> 100	> 100	> 100			> 100	> 100	> 100		> 100	> 100
CNC(=O)N1CCN(C(=O)NC)CCN(C(=O)NC)CC1	> 100	> 100	> 100	> 100	> 100	> 100	> 100	> 100	> 100	> 100	> 100	> 100	> 100	> 100	> 100		
CCOC(=O)CC(NC(=O)c1nc[nH]c1[N+](=O)[O-])C(=O)OCC (stereo unspecified)	> 100	> 100	> 100		> 100	> 100	> 100	> 100	> 100	> 100	> 100	94.1					> 100
N#CC1=C(N2CCCC2)NC(=O)CC1=O	> 100	> 100	> 100	> 100	> 100	> 100	> 100	> 100	> 100	> 100	> 100	> 100		> 100		> 100	> 100
C1=C2C3=[N+](CCCC3)CC2Cc2ccsc21 (stereo unspecified)	> 100	> 100	> 100	> 100	> 100	> 100	> 100	> 100	> 100	> 100		> 100	> 100	> 100	> 100	> 100	> 100
COc1cc2c(c(OC)c1OC)-c1ccc(SC)c(=O)cc1C(CC(=O)Oc1ccc([N+](=O)[O-])cc1)C2 (stereo unspecified)	> 40.5	1.09	> 100	> 48.3	0.099	> 49.2	> 100	31.4	13.9	> 100	> 38	> 51.3					> 43.6
